Test results taken from patent publication US9340590B2 (priority 2011, dated 2016).
Read-outs that look alike come from different tables or passages of the source. Positions of bridges follow the written chain, without caps; N, C: chain ends. Residues, ends and D or L forms follow the SMILES beside them.

Key:
hNav1.5 = hNav1.5 (Homo sapiens, UniProt Q14524); assay: cell-based
hNav1.3 = hNav1.3 (Homo sapiens, UniProt Q9NY46); assay: cell-based; settings: IonWorks Quattro, read-out: IWQ Use Nav1.3
[1] = IonWorks Quattro, Use, read-out: IWQ Use Nav1.5

hNav1.3, sequence (Q9NY46 whole entry, looked up): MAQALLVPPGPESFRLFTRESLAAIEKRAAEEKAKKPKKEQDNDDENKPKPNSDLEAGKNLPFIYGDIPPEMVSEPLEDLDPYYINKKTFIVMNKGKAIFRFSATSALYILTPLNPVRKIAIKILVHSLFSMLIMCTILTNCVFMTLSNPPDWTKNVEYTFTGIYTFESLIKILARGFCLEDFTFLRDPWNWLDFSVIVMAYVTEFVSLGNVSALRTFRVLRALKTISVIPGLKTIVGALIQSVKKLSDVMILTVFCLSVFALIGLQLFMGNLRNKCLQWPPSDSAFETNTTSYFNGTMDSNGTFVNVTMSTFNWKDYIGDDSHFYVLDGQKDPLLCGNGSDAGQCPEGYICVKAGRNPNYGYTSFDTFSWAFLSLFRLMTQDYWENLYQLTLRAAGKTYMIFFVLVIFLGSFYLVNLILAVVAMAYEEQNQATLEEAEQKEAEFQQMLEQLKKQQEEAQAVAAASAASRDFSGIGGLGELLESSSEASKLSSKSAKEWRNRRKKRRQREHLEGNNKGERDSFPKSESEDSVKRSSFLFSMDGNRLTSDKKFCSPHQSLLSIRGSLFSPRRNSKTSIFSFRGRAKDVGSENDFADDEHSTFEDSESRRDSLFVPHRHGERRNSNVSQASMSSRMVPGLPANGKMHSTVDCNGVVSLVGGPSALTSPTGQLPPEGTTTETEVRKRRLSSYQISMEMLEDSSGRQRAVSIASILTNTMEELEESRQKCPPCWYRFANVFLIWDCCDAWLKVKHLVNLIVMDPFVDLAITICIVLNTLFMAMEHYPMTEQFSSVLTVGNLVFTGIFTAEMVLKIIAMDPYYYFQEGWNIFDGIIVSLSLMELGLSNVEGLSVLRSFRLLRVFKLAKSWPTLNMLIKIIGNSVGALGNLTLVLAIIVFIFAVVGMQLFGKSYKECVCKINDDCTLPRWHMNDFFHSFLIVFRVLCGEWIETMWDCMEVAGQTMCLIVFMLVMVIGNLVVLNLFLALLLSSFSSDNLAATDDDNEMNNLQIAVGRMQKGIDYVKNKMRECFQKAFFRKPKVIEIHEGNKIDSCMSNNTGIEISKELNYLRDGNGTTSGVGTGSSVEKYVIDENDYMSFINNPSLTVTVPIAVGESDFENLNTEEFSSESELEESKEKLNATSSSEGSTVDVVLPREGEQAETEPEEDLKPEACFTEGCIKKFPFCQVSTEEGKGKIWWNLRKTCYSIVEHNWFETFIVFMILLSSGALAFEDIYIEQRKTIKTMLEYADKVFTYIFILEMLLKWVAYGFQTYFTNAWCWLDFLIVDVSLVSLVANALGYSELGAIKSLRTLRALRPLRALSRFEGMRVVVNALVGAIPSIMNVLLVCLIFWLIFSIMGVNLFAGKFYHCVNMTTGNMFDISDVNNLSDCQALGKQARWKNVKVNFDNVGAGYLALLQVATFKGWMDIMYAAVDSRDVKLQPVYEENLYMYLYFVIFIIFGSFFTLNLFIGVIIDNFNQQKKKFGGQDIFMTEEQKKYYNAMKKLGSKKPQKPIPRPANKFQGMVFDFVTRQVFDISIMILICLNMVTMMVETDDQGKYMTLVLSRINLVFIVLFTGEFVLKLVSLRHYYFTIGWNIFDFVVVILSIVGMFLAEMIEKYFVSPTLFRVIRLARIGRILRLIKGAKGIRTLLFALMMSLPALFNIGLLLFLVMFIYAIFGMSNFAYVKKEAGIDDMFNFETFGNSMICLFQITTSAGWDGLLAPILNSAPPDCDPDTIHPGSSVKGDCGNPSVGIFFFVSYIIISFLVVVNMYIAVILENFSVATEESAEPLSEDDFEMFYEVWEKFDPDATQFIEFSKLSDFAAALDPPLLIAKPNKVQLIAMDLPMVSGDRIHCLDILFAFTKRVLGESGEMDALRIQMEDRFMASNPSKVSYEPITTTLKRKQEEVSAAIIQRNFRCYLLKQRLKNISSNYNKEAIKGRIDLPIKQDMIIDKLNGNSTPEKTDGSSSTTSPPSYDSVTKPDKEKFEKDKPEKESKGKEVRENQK
hNav1.5, sequence (Q14524 whole entry, looked up): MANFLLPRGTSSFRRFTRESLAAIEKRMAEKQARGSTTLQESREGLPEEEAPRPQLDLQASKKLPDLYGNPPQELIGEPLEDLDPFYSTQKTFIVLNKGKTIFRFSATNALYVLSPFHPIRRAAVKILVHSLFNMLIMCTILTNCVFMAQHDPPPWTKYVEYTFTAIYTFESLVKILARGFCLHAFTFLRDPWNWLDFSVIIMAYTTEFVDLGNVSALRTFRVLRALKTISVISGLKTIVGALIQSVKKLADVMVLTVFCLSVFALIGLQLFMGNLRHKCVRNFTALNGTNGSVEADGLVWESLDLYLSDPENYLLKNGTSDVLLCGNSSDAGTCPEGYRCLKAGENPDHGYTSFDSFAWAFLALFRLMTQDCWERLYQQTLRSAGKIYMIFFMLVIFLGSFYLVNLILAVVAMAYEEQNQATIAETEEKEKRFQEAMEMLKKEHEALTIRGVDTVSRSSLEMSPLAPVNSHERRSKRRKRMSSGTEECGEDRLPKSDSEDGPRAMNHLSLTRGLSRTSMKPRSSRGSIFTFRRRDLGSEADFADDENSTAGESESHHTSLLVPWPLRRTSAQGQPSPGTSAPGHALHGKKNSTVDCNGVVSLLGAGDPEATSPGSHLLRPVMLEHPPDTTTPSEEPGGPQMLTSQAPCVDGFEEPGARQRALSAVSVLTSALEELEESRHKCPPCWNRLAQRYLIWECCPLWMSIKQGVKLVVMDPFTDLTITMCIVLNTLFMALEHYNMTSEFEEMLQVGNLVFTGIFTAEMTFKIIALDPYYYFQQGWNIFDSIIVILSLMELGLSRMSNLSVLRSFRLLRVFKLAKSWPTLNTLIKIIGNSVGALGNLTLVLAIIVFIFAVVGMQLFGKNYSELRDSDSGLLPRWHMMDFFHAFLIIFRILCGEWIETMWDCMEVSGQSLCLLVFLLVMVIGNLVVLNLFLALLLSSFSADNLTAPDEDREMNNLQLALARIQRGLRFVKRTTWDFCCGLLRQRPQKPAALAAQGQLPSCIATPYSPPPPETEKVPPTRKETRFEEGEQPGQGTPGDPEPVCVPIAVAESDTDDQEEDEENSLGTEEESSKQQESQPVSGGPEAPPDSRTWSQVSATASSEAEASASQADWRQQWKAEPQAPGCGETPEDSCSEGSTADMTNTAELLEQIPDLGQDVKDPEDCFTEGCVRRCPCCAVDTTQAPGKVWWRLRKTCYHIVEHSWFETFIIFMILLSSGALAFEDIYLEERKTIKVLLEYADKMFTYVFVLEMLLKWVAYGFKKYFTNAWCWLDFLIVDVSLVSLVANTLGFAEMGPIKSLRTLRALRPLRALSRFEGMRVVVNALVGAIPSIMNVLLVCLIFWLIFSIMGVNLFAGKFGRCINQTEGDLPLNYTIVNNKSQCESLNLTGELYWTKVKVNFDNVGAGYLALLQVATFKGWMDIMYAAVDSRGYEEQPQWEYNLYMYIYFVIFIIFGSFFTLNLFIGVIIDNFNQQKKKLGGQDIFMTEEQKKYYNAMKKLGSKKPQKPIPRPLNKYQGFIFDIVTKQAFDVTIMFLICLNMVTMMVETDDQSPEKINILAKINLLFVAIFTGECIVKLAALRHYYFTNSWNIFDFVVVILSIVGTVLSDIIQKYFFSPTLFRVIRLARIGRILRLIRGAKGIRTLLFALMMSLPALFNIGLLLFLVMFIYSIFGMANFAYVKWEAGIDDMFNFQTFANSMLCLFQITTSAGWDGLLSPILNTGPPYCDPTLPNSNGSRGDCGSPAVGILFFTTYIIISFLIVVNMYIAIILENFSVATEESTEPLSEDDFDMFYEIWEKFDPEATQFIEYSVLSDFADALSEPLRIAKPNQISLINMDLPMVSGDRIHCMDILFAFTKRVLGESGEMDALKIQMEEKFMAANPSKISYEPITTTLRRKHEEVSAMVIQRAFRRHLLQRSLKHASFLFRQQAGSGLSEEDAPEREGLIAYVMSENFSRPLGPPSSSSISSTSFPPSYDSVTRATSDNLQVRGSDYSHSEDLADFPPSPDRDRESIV

Structure (SMILES) | IC50 (hNav1.3; use-dependent block, hNav1.3) [µM] | IC50 (hNav1.5; IWQ Use Nav1.5 (μM)) [µM] | IC50 (hNav1.3; Use) [µM] | IC50 (hNav1.5; [1]) [µM] | further results
CC[C@H](C)[C@@H]1NC(=O)[C@@H]2CSSC[C@@H]3NC(=O)[C@H](C(C)C)NC(=O)[C@H](CC(C)C)NC(=O)[C@H](CC(N)=O)NC(=O)[C@@H]4CCCN4C(=O)[C@H](CCCNC(=N)N)NC(=O)[C@H](CSSC[C@H](NC(=O)[C@@H](N)CC(=O)O)C(=O)N[C@@H](CC(C)C)C(=O)N[C@@H](Cc4c[nH]c5ccccc45)C(=O)N[C@@H](Cc4ccccc4)C(=O)N[C@@H](CCSC)C(=O)N[C@@H](CCCNC(=N)N)C(=O)N[C@@H](CCCCN)C(=O)N2)NC(=O)[C@H](CSSC[C@@H](C(=O)N[C@@H](CCCCN)C(=O)N[C@@H](Cc2ccc(O)cc2)C(=O)N[C@H](C(=O)N[C@@H](Cc2ccccc2)C(N)=O)C(C)C)NC(=O)[C@H](Cc2c[nH]c4ccccc24)NC(=O)[C@H](CCCCN)NC(=O)[C@H](Cc2cnc[nH]2)NC(=O)[C@H]([C@@H](C)O)NC(=O)[C@H](CCCNC(=N)N)NC(=O)[C@H](CO)NC3=O)NC(=O)[C@H](CCCCN)NC(=O)[C@H](CC(=O)O)NC(=O)[C@H](CC(N)=O)NC(=O)[C@H](CC(=O)O)NC(=O)[C@@H]2CCCN2C1=O [SEQ ID NO: 169] (H-DCLWFMRKCIPDNDKCCRPNLVCSRTHKWCKYVF-NH2; disulfide 2-17, 9-23, 16-30) | – | – | – | – | IC50 (hNav1.5; IonWorks Quattro, clamped to −110 mV, depolarized to −10 mV, 5 min after compound, n=2, read-out: IWQ Use Nav1.5): 10.3 µM; IC50 (hNav1.3; clamped to −110 mV, depolarized to −10 mV, 5 min after compound, n=2): 0.03 µM
CC[C@H](C)[C@@H]1NC(=O)[C@@H]2CSSC[C@@H]3NC(=O)[C@H](C(C)C)NC(=O)[C@H](CC(C)C)NC(=O)[C@H](CC(N)=O)NC(=O)[C@@H]4CCCN4C(=O)[C@H](CCCNC(=N)N)NC(=O)[C@H](CSSC[C@H](NC(=O)[C@@H](N)CC(=O)O)C(=O)N[C@@H](CC(C)C)C(=O)NCC(=O)N[C@@H](Cc4ccccc4)C(=O)N[C@@H](CCSC)C(=O)N[C@@H](C)C(=O)N[C@@H](CCCCN)C(=O)N2)NC(=O)[C@H](CSSC[C@@H](C(=O)N[C@@H](CCCCN)C(=O)N[C@@H](Cc2ccc(O)cc2)C(=O)N[C@H](C(=O)N[C@@H](Cc2ccccc2)C(N)=O)C(C)C)NC(=O)[C@H](Cc2c[nH]c4ccccc24)NC(=O)[C@H](CCCCN)NC(=O)[C@H](Cc2cnc[nH]2)NC(=O)[C@H]([C@@H](C)O)NC(=O)[C@H](CCCNC(=N)N)NC(=O)[C@H](CO)NC3=O)NC(=O)[C@H](CCCCN)NC(=O)[C@H](CC(=O)O)NC(=O)[C@H](CC(N)=O)NC(=O)[C@H](CC(=O)O)NC(=O)[C@@H]2CCCN2C1=O [[Ala7]GpTx-1(1-34)] (H-DCLGFMAKCIPDNDKCCRPNLVCSRTHKWCKYVF-NH2; disulfide 2-17, 9-23, 16-30) | 0.83 | – | – | – | IC50 (hNav1.5; IonWorks Quattro, use-dependent block, hNav1.5, read-out: IWQ Use Nav1.5): 21.5 µM
CC[C@H](C)[C@@H]1NC(=O)[C@@H]2CSSC[C@@H]3NC(=O)[C@H](C(C)C)NC(=O)[C@H](CC(C)C)NC(=O)[C@H](CC(N)=O)NC(=O)[C@@H]4CCCN4C(=O)[C@H](CCCNC(=N)N)NC(=O)[C@H](CSSC[C@H](NC(=O)[C@@H](N)CC(=O)O)C(=O)N[C@@H](CC(C)C)C(=O)NCC(=O)N[C@@H](Cc4ccccc4)C(=O)N[C@@H](CCSC)C(=O)N[C@@H](CCCNC(=N)N)C(=O)N[C@@H](CCC(=O)O)C(=O)N2)NC(=O)[C@H](CSSC[C@@H](C(=O)N[C@@H](CCCCN)C(=O)N[C@@H](Cc2ccc(O)cc2)C(=O)N[C@H](C(=O)N[C@@H](Cc2ccccc2)C(N)=O)C(C)C)NC(=O)[C@H](Cc2c[nH]c4ccccc24)NC(=O)[C@H](CCCCN)NC(=O)[C@H](Cc2cnc[nH]2)NC(=O)[C@H]([C@@H](C)O)NC(=O)[C@H](CCCNC(=N)N)NC(=O)[C@H](CO)NC3=O)NC(=O)[C@H](CCCCN)NC(=O)[C@H](CC(=O)O)NC(=O)[C@H](CC(N)=O)NC(=O)[C@H](CC(=O)O)NC(=O)[C@@H]2CCCN2C1=O [[Glu8]GpTx-1(1-34)] (H-DCLGFMRECIPDNDKCCRPNLVCSRTHKWCKYVF-NH2; disulfide 2-17, 9-23, 16-30) | 1.36 | 24.9 | – | – | –
CC[C@H](C)[C@@H]1NC(=O)[C@@H]2CSSC[C@@H]3NC(=O)[C@H](C(C)C)NC(=O)[C@H](CC(C)C)NC(=O)[C@H](CC(N)=O)NC(=O)[C@@H]4CCCN4C(=O)[C@H](CCCNC(=N)N)NC(=O)[C@H](CSSC[C@H](NC(=O)[C@@H](N)CC(=O)O)C(=O)N[C@@H](CC(C)C)C(=O)NCC(=O)N[C@@H](Cc4ccccc4)C(=O)N[C@@H](CCSC)C(=O)N[C@@H](CCCNC(=N)N)C(=O)N[C@@H](CCCCN)C(=O)N2)NC(=O)[C@H](CSSC[C@@H](C(=O)N[C@@H](CCCCN)C(=O)N[C@@H](Cc2ccc(O)cc2)C(=O)N[C@H](C(=O)N[C@@H](Cc2ccccc2)C(N)=O)C(C)C)NC(=O)[C@H](Cc2c[nH]c4ccccc24)NC(=O)[C@H](CCCCN)NC(=O)[C@H](Cc2cnc[nH]2)NC(=O)[C@H]([C@@H](C)O)NC(=O)[C@H](CCCNC(=N)N)NC(=O)[C@H](CO)NC3=O)NC(=O)[C@H](CCCCN)NC(=O)[C@H](CC(=O)O)NC(=O)[C@H](CC(N)=O)NC(=O)[C@H](C)NC(=O)[C@@H]2CCCN2C1=O [compound 4] (H-DCLGFMRKCIPANDKCCRPNLVCSRTHKWCKYVF-NH2; disulfide 2-17, 9-23, 16-30) | – | 8.05 | 0.13 | – | –
CC[C@H](C)[C@@H]1NC(=O)[C@@H]2CSSC[C@@H]3NC(=O)[C@H](C(C)C)NC(=O)[C@H](CC(C)C)NC(=O)[C@H](C)NC(=O)[C@@H]4CCCN4C(=O)[C@H](CCCNC(=N)N)NC(=O)[C@H](CSSC[C@H](NC(=O)[C@@H](N)CC(=O)O)C(=O)N[C@@H](CC(C)C)C(=O)NCC(=O)N[C@@H](Cc4ccccc4)C(=O)N[C@@H](CCSC)C(=O)N[C@@H](CCCNC(=N)N)C(=O)N[C@@H](CCCCN)C(=O)N2)NC(=O)[C@H](CSSC[C@@H](C(=O)N[C@@H](CCCCN)C(=O)N[C@@H](Cc2ccc(O)cc2)C(=O)N[C@H](C(=O)N[C@@H](Cc2ccccc2)C(N)=O)C(C)C)NC(=O)[C@H](Cc2c[nH]c4ccccc24)NC(=O)[C@H](CCCCN)NC(=O)[C@H](Cc2cnc[nH]2)NC(=O)[C@H]([C@@H](C)O)NC(=O)[C@H](CCCNC(=N)N)NC(=O)[C@H](CO)NC3=O)NC(=O)[C@H](CCCCN)NC(=O)[C@H](CC(=O)O)NC(=O)[C@H](CC(N)=O)NC(=O)[C@H](CC(=O)O)NC(=O)[C@@H]2CCCN2C1=O [compound 7] (H-DCLGFMRKCIPDNDKCCRPALVCSRTHKWCKYVF-NH2; disulfide 2-17, 9-23, 16-30) | – | – | 0.41 | 19.5 | –
CC[C@H](C)[C@@H]1NC(=O)[C@@H]2CSSC[C@@H]3NC(=O)[C@H](C)NC(=O)[C@H](CC(C)C)NC(=O)[C@H](CC(N)=O)NC(=O)[C@@H]4CCCN4C(=O)[C@H](CCCNC(=N)N)NC(=O)[C@H](CSSC[C@H](NC(=O)[C@@H](N)CC(=O)O)C(=O)N[C@@H](CC(C)C)C(=O)NCC(=O)N[C@@H](Cc4ccccc4)C(=O)N[C@@H](CCSC)C(=O)N[C@@H](CCCNC(=N)N)C(=O)N[C@@H](CCCCN)C(=O)N2)NC(=O)[C@H](CSSC[C@@H](C(=O)N[C@@H](CCCCN)C(=O)N[C@@H](Cc2ccc(O)cc2)C(=O)N[C@H](C(=O)N[C@@H](Cc2ccccc2)C(N)=O)C(C)C)NC(=O)[C@H](Cc2c[nH]c4ccccc24)NC(=O)[C@H](CCCCN)NC(=O)[C@H](Cc2cnc[nH]2)NC(=O)[C@H]([C@@H](C)O)NC(=O)[C@H](CCCNC(=N)N)NC(=O)[C@H](CO)NC3=O)NC(=O)[C@H](CCCCN)NC(=O)[C@H](CC(=O)O)NC(=O)[C@H](CC(N)=O)NC(=O)[C@H](CC(=O)O)NC(=O)[C@@H]2CCCN2C1=O [compound 8] (H-DCLGFMRKCIPDNDKCCRPNLACSRTHKWCKYVF-NH2; disulfide 2-17, 9-23, 16-30) | – | – | 0.32 | 20.4 | –
